For twelve molecules, Ki, IC50 and pKa results are on record in patent publication US9944618B2, “Inhibiting neurotransmitter reuptake” (Mayo Foundation for Medical Education and Research, priority 2013, dated 2018).

For series [1], the target named is human dopamine transporter (Homo sapiens (Human), UniProt Q01959). Put plainly: Human DAT (dopamine transporter) uptake assay. It is filed as cell-based. To be noted: read-out: hDAT Ki. Put shortly:
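Uptake inhibition was measured in HEK293F cells transfected with human DAT, plated at ~60,000 cells/well and settled ≥3 h at 37 °C. Compounds came from 10 mM DMSO stocks. Read-out was uptake of a fluorescent neurotransmitter transporter dye in HBSS with 0.02 M HEPES, with dye level given as % of vendor reconstitution; n=3.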

For series [2], the target named is human serotonin transporter (Homo sapiens (Human), UniProt P31645). Nature of the series: Human SERT (serotonin transporter) uptake assay. Particulars: read-out: hSERT Ki. It is filed as cell-based. In short, it runs like this: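 HEK293F cells transfected with human SERT, about 60,000 per well, settled for ≥3 h at 37° C before compound addition. Uptake was followed with a fluorescent transporter dye in HBSS with 0.02 M HEPES. Background came from 10 μM fluoxetine, nomifensine was the control, n=3.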
Sequence of human serotonin transporter (P31645 whole entry): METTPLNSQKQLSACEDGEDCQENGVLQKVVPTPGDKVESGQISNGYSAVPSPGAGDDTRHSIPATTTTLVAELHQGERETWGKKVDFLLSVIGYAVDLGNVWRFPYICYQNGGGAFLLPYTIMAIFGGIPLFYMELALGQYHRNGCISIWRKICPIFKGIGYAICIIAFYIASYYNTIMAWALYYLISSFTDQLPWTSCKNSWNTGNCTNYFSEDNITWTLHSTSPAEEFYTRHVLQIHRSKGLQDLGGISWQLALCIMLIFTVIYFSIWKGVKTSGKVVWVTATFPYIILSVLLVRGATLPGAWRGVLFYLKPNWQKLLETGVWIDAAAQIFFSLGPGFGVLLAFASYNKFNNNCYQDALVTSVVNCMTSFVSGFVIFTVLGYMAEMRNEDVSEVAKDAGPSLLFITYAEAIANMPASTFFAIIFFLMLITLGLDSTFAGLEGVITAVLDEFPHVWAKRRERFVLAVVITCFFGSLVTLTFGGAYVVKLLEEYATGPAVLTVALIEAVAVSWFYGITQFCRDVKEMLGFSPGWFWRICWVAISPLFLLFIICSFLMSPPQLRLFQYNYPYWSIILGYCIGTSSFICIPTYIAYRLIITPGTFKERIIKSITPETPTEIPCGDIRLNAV

Series [3] concerns the target CYP3A4 (Homo sapiens (Human), UniProt P08684). Nature of the series: Cytochrome P450 inhibition assay, recombinant CYP3A4 (BFC substrate). The series is classed as in vitro ADME. To be noted: recombinant enzyme.
In series [4] the target is human norepinephrine transporter (Homo sapiens (Human), UniProt P23975). Put plainly: Human NET (norepinephrine transporter) uptake assay. It is filed as cell-based. To be noted: read-out: hNET Ki. Put shortly:
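HEK293F cells transfected with human NET were thawed, plated at about 60,000 cells/well and held at 37 °C for at least 3 h. Compounds came from 10 mM DMSO stocks, with nomifensine as control, in 1×HBSS/0.02 M HEPES. Uptake was followed with a neurotransmitter transporter dye, dosed as % of vendor reconstitution, in triplicate.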

Series [5] is described as follows: pKa of basic centres (Table 1). The series is classed as physicochemical.
Series [6] concerns the target CYP2D6 (Homo sapiens (Human), UniProt P10635). Put plainly: Cytochrome P450 inhibition assay, recombinant CYP2D6 (MAMC substrate). The series is classed as in vitro ADME. To be noted: recombinant enzyme.
Setting [7] is: first base, e.g., an aliphatic primary, secondary, or tertiary amine, read-out: pKa (Base 1).
Where [8] appears, read: second base in the same molecule (if present), read-out: pKa (Base 2).

Read-outs that look alike come from different tables or passages of the source.

Sequence of CYP2D6 (P10635 whole entry): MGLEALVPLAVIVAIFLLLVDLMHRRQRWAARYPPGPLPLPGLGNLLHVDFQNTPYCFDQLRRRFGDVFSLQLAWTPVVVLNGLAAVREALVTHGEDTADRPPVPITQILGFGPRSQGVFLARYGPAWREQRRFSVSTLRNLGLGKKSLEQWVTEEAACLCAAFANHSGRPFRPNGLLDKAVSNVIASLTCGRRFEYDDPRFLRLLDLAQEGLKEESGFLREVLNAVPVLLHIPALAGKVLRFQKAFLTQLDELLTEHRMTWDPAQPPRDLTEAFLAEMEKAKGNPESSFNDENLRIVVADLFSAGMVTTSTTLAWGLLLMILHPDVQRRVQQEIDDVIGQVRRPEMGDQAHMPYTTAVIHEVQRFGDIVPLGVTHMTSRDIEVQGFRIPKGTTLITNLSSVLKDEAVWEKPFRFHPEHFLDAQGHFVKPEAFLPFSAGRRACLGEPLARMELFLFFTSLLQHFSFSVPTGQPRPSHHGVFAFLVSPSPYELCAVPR
Sequence of human norepinephrine transporter (P23975 whole entry): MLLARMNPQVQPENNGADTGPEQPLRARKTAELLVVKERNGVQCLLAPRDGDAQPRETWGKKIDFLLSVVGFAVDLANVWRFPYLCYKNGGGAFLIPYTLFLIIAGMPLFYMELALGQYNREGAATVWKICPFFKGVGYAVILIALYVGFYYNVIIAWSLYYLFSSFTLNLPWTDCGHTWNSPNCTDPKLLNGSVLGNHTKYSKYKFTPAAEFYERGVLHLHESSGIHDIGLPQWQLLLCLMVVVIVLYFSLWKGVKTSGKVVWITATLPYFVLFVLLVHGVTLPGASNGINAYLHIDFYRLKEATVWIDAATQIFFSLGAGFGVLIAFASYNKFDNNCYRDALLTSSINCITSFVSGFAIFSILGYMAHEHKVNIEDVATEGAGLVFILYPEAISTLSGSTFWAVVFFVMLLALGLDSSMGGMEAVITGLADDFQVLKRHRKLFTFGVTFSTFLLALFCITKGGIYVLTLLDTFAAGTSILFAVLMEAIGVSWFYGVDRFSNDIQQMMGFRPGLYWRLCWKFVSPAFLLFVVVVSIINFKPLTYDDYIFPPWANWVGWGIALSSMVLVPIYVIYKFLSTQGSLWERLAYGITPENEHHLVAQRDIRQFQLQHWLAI
Sequence of human dopamine transporter (Q01959 whole entry): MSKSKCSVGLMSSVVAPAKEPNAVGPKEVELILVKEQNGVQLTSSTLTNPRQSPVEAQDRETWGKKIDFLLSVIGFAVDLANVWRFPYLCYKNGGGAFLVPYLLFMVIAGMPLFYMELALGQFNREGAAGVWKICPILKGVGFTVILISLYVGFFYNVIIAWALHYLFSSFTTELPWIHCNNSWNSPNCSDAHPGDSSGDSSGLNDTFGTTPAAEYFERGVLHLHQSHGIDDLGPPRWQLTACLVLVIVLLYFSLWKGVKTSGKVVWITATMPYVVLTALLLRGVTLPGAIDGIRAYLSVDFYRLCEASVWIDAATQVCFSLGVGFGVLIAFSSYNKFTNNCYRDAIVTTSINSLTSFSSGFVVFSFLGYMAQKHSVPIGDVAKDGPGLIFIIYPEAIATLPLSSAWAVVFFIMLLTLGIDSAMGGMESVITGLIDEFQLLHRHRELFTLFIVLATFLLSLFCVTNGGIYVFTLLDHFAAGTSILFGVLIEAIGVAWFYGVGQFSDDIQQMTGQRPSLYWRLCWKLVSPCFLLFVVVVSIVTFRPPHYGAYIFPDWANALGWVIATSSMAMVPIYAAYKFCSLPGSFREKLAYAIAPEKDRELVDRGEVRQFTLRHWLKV
Sequence of CYP3A4 (P08684 whole entry): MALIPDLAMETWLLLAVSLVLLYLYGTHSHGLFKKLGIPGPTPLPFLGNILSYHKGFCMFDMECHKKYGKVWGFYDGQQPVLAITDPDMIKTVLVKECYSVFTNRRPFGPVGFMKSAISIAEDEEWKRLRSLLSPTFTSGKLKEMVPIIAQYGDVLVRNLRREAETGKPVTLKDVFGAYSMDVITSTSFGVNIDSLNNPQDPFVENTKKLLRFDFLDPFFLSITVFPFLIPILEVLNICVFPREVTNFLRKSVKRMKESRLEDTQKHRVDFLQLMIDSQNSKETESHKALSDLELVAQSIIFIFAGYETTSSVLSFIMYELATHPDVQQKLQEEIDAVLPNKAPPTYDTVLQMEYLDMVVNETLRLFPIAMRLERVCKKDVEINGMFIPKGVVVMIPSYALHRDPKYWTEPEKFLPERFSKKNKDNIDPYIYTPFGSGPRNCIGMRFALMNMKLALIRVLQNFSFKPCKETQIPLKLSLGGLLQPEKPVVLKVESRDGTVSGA

`CNC[C@H](c1ccc2ccccc2c1)[C@H](O)c1ccncc1` [Compound 12]: the values for the Ki in series [1], in series [2] and in series [4] were 52.6 nM, 2.7 nM and 1.6 nM, respectively. Further, the IC50 was 20000 nM in series [3] and 880 nM in series [6]. Moreover, the pKa stood at 9.6 in series [5] (setting [7]) and 5.4 in series [5] (setting [8]).
For `CNC[C@@H](c1ccc(Cl)c(Cl)c1)[C@@H](O)c1cncc(OC)c1` [Compound 109], the Ki in series [1] came out at 66.7 nM; in series [2], 646 nM; in series [4], 120 nM. The IC50 in series [3] came to 20000 nM; in series [6], 1100 nM. For the same molecule, the pKa is 9.3 in series [5] (setting [7]) and 4.5 in series [5] (setting [8]).
Turning to `NC[C@@H](c1ccc2ccccc2c1)[C@@H](O)c1ccc(Cl)nc1` [Compound 126], the Ki in series [1] was found to be 125 nM; in series [2], 107 nM; in series [4], 500 nM. In addition, the values for the IC50 in series [3] and in series [6] were 20000 nM and 3900 nM, respectively. In addition, the pKa in series [5] (setting [7]) amounted to 8.3.
Consider `CNC[C@H](c1ccc(Cl)c(Cl)c1)[C@@H](O)c1cccnc1OC` [Compound 104], for which the values for the Ki in series [1], in series [2] and in series [4] were 94.6 nM, 656 nM and 60.6 nM, respectively. Also, the results for the half-inhibitory concentration (IC50) in series [3] and in series [6] were 270 nM and 66 nM, respectively. Also, the pKa in series [5] (setting [7]) turned out to be 9.2; in series [5] (setting [8]), 3.2.
Regarding `CNC[C@H](c1ccc(Cl)c(Cl)c1)[C@H](O)c1cccc(N(C)C)c1` (single isomer, unassigned) [Compound 168], the results for the Ki in series [1], in series [2] and in series [4] were 144 nM, 178 nM and 89.3 nM, respectively. The IC50 is 4600 nM in series [3] and 780 nM in series [6]. In addition, the results for the pKa in series [5] (setting [7]) and in series [5] (setting [8]) were 9.5 and 4.9, respectively.
Take `NCC[C@@H](Cc1cccnc1)c1ccc(Cl)c(Cl)c1` [Compound 112]: the Ki was 273 nM in series [1], 154 nM in series [2] and 148 nM in series [4]. Moreover, the concentration for half-maximal inhibition (IC50) in series [3] came out at 18000 nM; in series [6], 2900 nM. The values for the pKa in series [5] (setting [7]) and in series [5] (setting [8]) were 8.6 and 5.1, respectively.
In the case of `CN(C)C[C@H](c1ccc(Cl)c(Cl)c1)[C@H](O)c1ccccc1` (racemic) [Compound 105], the results for the Ki in series [1], in series [2] and in series [4] were 18.1 nM, 138 nM and 64.6 nM, respectively. Also, the IC50 is not below 20000 nM in series [3] and 2100 nM in series [6]. For the same molecule, in series [5] (setting [7]), the pKa is 8.8.
With `NC[C@@H](Cc1ccccc1O)c1ccc2ccccc2c1` [Compound 133], the Ki in series [1] is 52.7 nM; in series [2], 116 nM; in series [4], 34.6 nM. Further, the IC50 in series [3] was determined as 10000 nM; in series [6] it was 580 nM. Moreover, the pKa in series [5] (setting [7]) was determined as 9.4.
Turning to `CNC[C@@H](c1ccc(Cl)c(Cl)c1)[C@@H](O)c1cccc(OC)n1` [Compound 157], the Ki stood at 53.4 nM in series [1], 140 nM in series [2] and 88.4 nM in series [4]. For the same molecule, the IC50 in series [3] is 20000 nM; in series [6], 580 nM. Further, in series [5] (setting [7]), the pKa came out at 9.2.
As for `CNC[C@H](c1ccc(-c2ccccc2)cc1)[C@H](O)c1ccccc1` (racemic) [Compound 113], the values for the Ki in series [1], in series [2] and in series [4] were 1570 nM, 5.2 nM and 167 nM, respectively. Further, the IC50 in series [3] was found to be 16000 nM; in series [6] it was 220 nM. Besides, the pKa in series [5] (setting [7]) was 9.8.
`CNC[C@H](c1ccc(Cl)c(Cl)c1)[C@H](O)c1cccc(N)c1` [Compound 24]: the Ki in series [1] amounted to 21.9 nM; in series [2], 71.4 nM; in series [4], 2.2 nM. The IC50 was 20000 nM in series [3] and 1400 nM in series [6]. Besides, the pKa is 9.4 in series [5] (setting [7]) and 4.3 in series [5] (setting [8]).
For the molecule `CNC[C@H](c1ccc2ccccc2c1)[C@H](OCCO)c1ccccc1` [Compound 32], the Ki in series [1] is 15.8 nM; in series [2], 0.7 nM; in series [4] it was 2.7 nM. Also, the IC50 in series [3] was 20000 nM; in series [6], 560 nM. In series [5] (setting [7]), the pKa was 9.6.
